Reference: US20070128217A1 (priority 2003, published 2007)

Tests used:
[1] = system: antibodies in sera from SARS patients (sera 1a, 1b, 2, 6, 37, 62, London, SARS-yellow, SARS-green); type: binding, human; set-up: Binding of serum 6 to linear peptides of protein X1 of SARS-CoV Urbani / Binding of serum 37 to linear peptides of protein X1 of SARS-CoV Urbani / Binding of serum 6 to looped/cyclic peptide (PEPSCAN-ELISA) / Binding of serum 37 to looped/cyclic peptide (PEPSCAN-ELISA) / Binding of serum 37 to looped/cyclic peptides of protein X1 of SARS-CoV Urbani / Binding of serum 6 to linear peptides of protein X2 / Binding of serum 37 to linear peptides of protein X2 / Binding of serum 37 to looped/cyclic peptides of protein X2 of SARS-CoV Urbani / Binding of serum 6 to linear peptides of protein M of SARS-CoV Urbani / Binding of serum 37 to linear peptides of protein M of SARS-CoV Urbani / Binding of serum 6 to looped/cyclic peptides of protein M of SARS-CoV Urbani / Binding of serum 37 to looped/cyclic peptides of protein M of SARS-CoV Urbani / Binding of serum 6 to linear peptides of protein X3 of SARS-CoV Urbani / Binding of serum 37 to linear peptides of protein X3 of SARS-CoV Urbani / Binding of serum 37 to looped/cyclic peptides of protein X3 of SARS-CoV Urbani / Binding of serum 6 to linear peptides of protein X4 of SARS-CoV Urbani / Binding of serum 37 to linear peptides of protein X4 of SARS-CoV Urbani / Binding of serum 37 to looped/cyclic peptides of protein X4 of SARS-CoV Urbani / Binding of serum 6 to linear peptides of protein X5 of SARS-CoV Urbani / Binding of serum 37 to linear peptides of protein X5 of SARS-CoV Urbani / Binding of serum 37 to looped/cyclic peptides of protein X5 of SARS-CoV Urbani / Binding of serum 6 to linear peptides of protein N of SARS-CoV Urbani / Binding of serum 37 to linear peptides of protein N of SARS-CoV Urbani / Binding of serum 6 to linear peptide (PEPSCAN-ELISA) / Binding of serum 1a to looped/cyclic peptides of protein N of SARS-CoV Urbani / Binding of serum 1b to looped/cyclic peptides of protein N of SARS-CoV Urbani / Binding of serum 2 to looped/cyclic peptides of protein N of SARS-CoV Urbani / Binding of serum 6 to looped/cyclic peptides of protein N of SARS-CoV Urbani / Binding of serum 37 to looped/cyclic peptides of protein N of SARS-CoV Urbani / Binding of serum 62 to looped/cyclic peptides of protein N of SARS-CoV Urbani / Binding of serum London to looped/cyclic peptides of protein N of SARS-CoV Urbani / Binding of serum SARS-green to looped/cyclic peptides of protein N of SARS-CoV Urbani: unit not given here
[2] = system: control sera (pooled serum of ten healthy LUMC hospital workers; commercial negative donor pooled serum from the Dutch bloodbank); type: binding, human; set-up: Binding of Control serum LUMC to linear peptides / Binding of Control serum Blood-bank to linear peptides / Binding of Control serum LUMC to looped peptides / Binding of Control Serum Blood-Bank to Looped peptides / Binding of Control serum LUMC to linear peptides of the protein M of SARS-CoV Urbani / Binding of Control serum Blood-bank to linear peptides of the protein M of SARS-CoV Urbani / Binding of Control serum LUMC to looped peptides of the protein M of SARS-CoV Urbani / Binding of Control Serum Blood-Bank to Looped peptides of the protein M of SARS-CoV Urbani: unit not given here
[3] = system: rabbit serum obtained by immunizing a rabbit with the SARS-CoV strain Frankfurt 1; type: binding; set-up: Binding of a rabbit serum to linear peptides / Binding of a rabbit serum to looped peptides / Rabbit serum linear peptides / Rabbit serum looped peptides / Binding of a rabbit serum to linear peptides of protein N of SARS-CoV Urbani (Rabbit serum linear peptides) / Binding of a rabbit serum to looped/cyclic peptides of protein N of SARS-CoV Urbani (Rabbit serum looped peptides): unit not given here

| Sequence | Binding of serum 1a to linear peptides of protein M of SARS-CoV Urbani [1] | Binding of serum 1b to linear peptides of protein M of SARS-CoV Urbani [1] | Binding of serum 2 to linear peptides of protein M of SARS-CoV Urbani [1] | Binding of serum 6 to linear peptides of protein M of SARS-CoV Urbani [1] | Binding of serum 37 to linear peptides of protein M of SARS-CoV Urbani [1] | Binding of serum 62 to linear peptides of protein M of SARS-CoV Urbani [1] | Binding of serum London to linear peptides of protein M of SARS-CoV Urbani [1] | Binding of serum SARS-green to linear peptides of protein M of SARS-CoV Urbani [1] | Binding of serum SARS-yellow to linear peptides of protein M of SARS-CoV Urbani [1] | Recognition of the peptide by sera of SARS-CoV infected individuals, and form (linear, looped/cyclic) in which it is recognized [1] | Binding of Control Serum Blood-Bank to Looped peptides of the protein M of SARS-CoV Urbani [2] | Binding of Control serum Blood-bank to linear peptides of the protein M of SARS-CoV Urbani [2] | Binding of Control serum LUMC to linear peptides of the protein M of SARS-CoV Urbani [2] | Binding of Control serum LUMC to looped peptides of the protein M of SARS-CoV Urbani [2] | Rabbit serum linear peptides [3] | Rabbit serum looped peptides [3] | other results |
| --- | --- | --- | --- | --- | --- | --- | --- | --- | --- | --- | --- | --- | --- | --- | --- | --- | --- |
| FLYIIKLVFLWLLWP | 0.8 | 0.5 | 1.0 | 0.3 | 0.8 | 0.9 | 0.3 | 0.3 | 0.1 | recognized in looped/cyclic form | 0.8 | 0.8 | 0.4 | 0.9 | 0.4 | 0.4 | – |
| NRYRIGNYKLNTDHA | 0.8 | 0.6 | 0.5 | 0.3 | 0.5 | 0.6 | 0.2 | 0.2 | 0.1 | – | 0.7 | 0.2 | 0.2 | 0.7 | 0.2 | 0.3 | Binding of serum 1a to looped/cyclic peptides of protein M of SARS-CoV Urbani [1]: 0.8; Binding of serum 1b to looped/cyclic peptides of protein M of SARS-CoV Urbani [1]: 0.6; Binding of serum 2 to looped/cyclic peptides of protein M of SARS-CoV Urbani [1]: 0.5; Binding of serum 6 to looped/cyclic peptides of protein M of SARS-CoV Urbani [1]: 0.7; Binding of serum 37 to looped/cyclic peptides of protein M of SARS-CoV Urbani [1]: 0.6; Binding of serum 62 to looped/cyclic peptides of protein M of SARS-CoV Urbani [1]: 0.5; Binding of serum London to looped/cyclic peptides of protein M of SARS-CoV Urbani [1]: 0.4; Binding of serum SARS-green to looped/cyclic peptides of protein M of SARS-CoV Urbani [1]: 0.3; Binding of serum SARS-yellow to looped/cyclic peptides of protein M of SARS-CoV Urbani [1]: 0.9 |
| MMSRRRLLACLCKHK | – | – | – | – | – | – | – | – | – | recognized in linear form | – | – | – | – | – | – | Binding of serum 1a to looped/cyclic peptides of protein X2 of SARS-CoV Urbani [1]: 0.2; Binding of serum 1b to looped/cyclic peptides of protein X2 of SARS-CoV Urbani [1]: 0.2; Binding of serum 2 to looped/cyclic peptides of protein X2 of SARS-CoV Urbani [1]: 0.1; Binding of serum 6 to looped/cyclic peptides of protein X2 of SARS-CoV Urbani [1]: 0.0; Binding of serum 37 to looped/cyclic peptides of protein X2 of SARS-CoV Urbani [1]: 0.2; Binding of serum 62 to looped/cyclic peptides of protein X2 of SARS-CoV Urbani [1]: 0.3; Binding of serum London to looped/cyclic peptides of protein X2 of SARS-CoV Urbani [1]: 0.1; Binding of serum SARS-green to looped/cyclic peptides of protein X2 of SARS-CoV Urbani [1]: 0.1; Binding of serum SARS-yellow to looped/cyclic peptides of protein X2 of SARS-CoV Urbani [1]: 0.2; Binding of Control Serum Blood-Bank to Looped peptides [2]: 0.2; Binding of Control serum Blood-bank to linear peptides [2]: 0.8; Binding of Control serum LUMC to linear peptides [2]: 0.5; Binding of Control serum LUMC to looped peptides [2]: 0.2; Binding of a rabbit serum to linear peptides [3]: 0.4; Binding of a rabbit serum to looped peptides [3]: 0.3 |
